Where two headings read alike, the source gives them in different places.
Tests used:
Assay type in all cases: cell-based
[1] = tested on: colon cancer cell line HCT 116; assay: Growth profile / viability of HCT116 colon cancer cells, XTT test; conditions: Homo sapiens, HCT-116, 96 h, Control DMSO = 100%, read-out: percentage of viable cells, HCT116
Procedure: (§1) The effect of the compounds Z522-XXX on the growth profile of cancer cells which express Fer was tested. The cells that were tested were: the colon cancer cell lines HT29 and HCT 116, RKO. The effect of each of the compounds on FS cells, a non malingnant fibroblastic cell line, was also studied.
(§2) Generally, cells were seeded in 96 wells microplates and were left to grow untreated overnight. Each of the compounds was dissolved in DMSO and was then added to each well in a final concentration of 5 μM. The concentration of DMSO in each well was 0.4% v/v. Untreated cells and cells subjected to 0.4% DMSO alone, served as controls. The percentage of viable cells in each well was determined 96 hours after compounds addition, using the XTT test (Berridge, M. V. et al, 2005).

[2] = tested on: colon cancer cell line HT29; assay: Growth profile / viability of HT29 colon cancer cells, XTT test; conditions: Homo sapiens, HT-29, 96 h, Control DMSO = 100%, read-out: percentage of viable cells, HT29
Procedure: as §1, §2

[3] = tested on: colon cancer cell line RKO; assay: Growth profile / viability of RKO colon cancer cells, XTT test; conditions: 96 h, Control DMSO = 100%, read-out: percentage of viable cells, RKO
Procedure: as §1, §2

[4] = Viability of FS non malignant fibroblastic cells, XTT test; conditions: FS cells (non-malignant fibroblastic cell line), Control DMSO = 100%, read-out: percentage of viable cells, FS
Procedure: as §1, §2

Structure (SMILES)	viability at 5 µM ([1]; first HCT116 column) [%]	viability at 5 µM ([1]; second HCT116 column) [%]	viability at 5 µM ([2]; first HT29 column) [%]	viability at 5 µM ([2]; second HT29 column) [%]	viability at 5 µM ([3]; first RKO column) [%]	viability at 5 µM ([3]; second RKO column) [%]	viability at 96 h, 5 µM ([4]; first FS column) [%]	viability at 96 h, 5 µM ([4]; second FS column) [%]
CN(CCc1ccccn1)C(=O)C1CCN(c2nn3cc(-c4ccc(Cl)cc4)nc3s2)CC1 [Compound Z522-0203, 1-[6-(4-chlorophenyl)imidazo[2,1-b][1,3,4]thiadiazol-2-yl]-N-methyl-N-(2-pyridin-2-ylethyl) piperidine-4-carboxamide]	75	75	74	88	48	48	90	94
CN(C)CCNC(=O)CN(C)C(=O)C1CCN(c2nn3cc(-c4ccc(Cl)cc4)nc3s2)CC1 [Compound Z522-0216, 1-[6-(4-chlorophenyl)imidazo[2,1-b][1,3,4]thiadiazol-2-yl]-N^4-(2-[2-(dimethylamino)ethyl]amino-2-oxoethyl)-N^4-methyl-4-piperidinecarboxamide]	68	86	10	11	0	2	86	93
Cc1c(-c2ccc(N3CCCC3)cc2)nc2sc(N3CCC(C(=O)N4CCN(C)CC4)CC3)nn12 [Compound Z522-0195, 5-methyl-2-{4-[(4-methyl-piperazin-1-yl)carbonyl]piperidin-1-yl}-6-(4-pyrrolidin-1-ylphenyl)imidazo [2,1-b][1,3,4]-thiadiazole]	111	113	91	82	80	75	109	119
Cc1c(-c2ccc(N(C)CCO)cc2)nc2sc(N3CCC(C(=O)N4CCN(C)CC4)CC3)nn12 [Compound Z522-0197, 2-{methyl[4-(5-methyl-2-{4-[(4-methylpiperazin-1-yl)carbonyl]-piperidin-1-yl}-imidazo[2,1-b]-[1,3,4]thiadiazol-6-yl)phenyl]-amino}ethanol]	95	108	102	110	111	117	113	104
CC(C)c1ccc(-c2cn3nc(N4CCC(C(=O)N5CCN(c6ncccn6)CC5)CC4)sc3n2)cc1 [Compound Z522-0227, 6-(4-isopropyl-phenyl)-2-{4-[(4-pyrimidin-2-ylpiperazin-1-yl)carbonyl]piperidin-1-yl}imidazo[2,1-b][1,3,4]thiadiazole]	72	84	91	91	63	63	89	91
CC(C)c1ccc(-c2cn3nc(N4CCC(C(=O)N(C)CCc5ccncc5)CC4)sc3n2)cc1 [Compound Z522-0228, 1-[6-(4-isopropylphenyl)imidazo[2,1-b][1,3,4]thiadiazol-2-yl]-N-methyl-N-(2-pyridin-4-ylethyl)piperidine-4-carboxamide]	82	70	58	61	51	55	111	113
CC(C)c1ccc(-c2cn3nc(N4CCC(C(=O)N(C)CC(=O)N5CCN(C)CC5)CC4)sc3n2)cc1 [Compound Z522-0240, 1-[6-(4-isopropylphenyl)imidazo[2,1-b][1,3,4]thiadiazol-2-yl]-N^4-methyl-N^4-[2-(4-methyl-piperazino)-2-oxoethyl]-4-piperidinecarboxamide]	82	68	50	53	19	15	80	101
Cc1c(-c2ccc(-n3cccn3)cc2)nc2sc(N3CCC(C(=O)N4CCN(C)CC4)CC3)nn12 [Compound Z522-0187, 5-methyl-2-{4-[(4-methyl-piperazin-1-yl)-carbonyl]piperidin-1-yl}-6-[4-(1H-pyrazol-1-yl)-phenyl]imidazo[2,1-b][1,3,4]-thiadiazole]	110	97	99	111	56	56	92	94
Cc1c(-c2ccc(N3CCCCCC3)cc2)nc2sc(N3CCC(C(=O)N4CCN(C)CC4)CC3)nn12 [Compound Z522-0185, 6-(4-azepan-1-yl-phenyl)-5-methyl-2-{4-[(4-methyl-piperazin-1-yl)carbonyl]piperidin-1-yl}imidazo-[2,1-b][1,3,4]-thiadiazole]	40	42	19	11	14	15	92	94
O=C(C1CCN(c2nn3cc(-c4ccc(Cl)cc4)nc3s2)CC1)N1CCN(c2ncccn2)CC1 [Compound Z522-0204, 6-(4-chlorophenyl)-2-{4-[(4-pyrimidin-2-ylpiperazin-1-yl)carbonyl]piperidin-1-yl}imidazo[2,1-b][1,3,4]thiadiazole]	97	110	105	97	92	76	96	93
CN1CCN(C(=O)C2CCN(c3nn4cc(-c5ccc(-n6cccn6)cc5)nc4s3)CC2)CC1 [Compound Z522-0167, 2-{4-[(4-methyl-piperazin-1-yl)-carbonyl]piperidin-1-yl}-6-[4-(1H-pyrazol-1-yl)-phenyl]imidazo[2,1-b][1,3,4]-thiadiazole]	94	83	87	86	36	47	96	92
Cc1c(-c2ccc(N3CCOCC3)cc2)nc2sc(N3CCC(C(=O)N4CCN(C)CC4)CC3)nn12 [Compound Z522-0196, 5-methyl-2-{4-[(4-methyl-piperazin-1-yl)-carbonyl]piperidin-1-yl}-6-(4-morpholin-4-ylphenyl)imidazo [2,1-b][1,3,4]-thiadiazole]	105	104	104	101	88	93	86	94
CN1CCN(C(=O)C2CCN(c3nn4cc(-c5ccc(N6CCOCC6)cc5)nc4s3)CC2)CC1 [Compound Z522-0176, 2-{4-[(4-methyl-piperazin-1-yl)-carbonyl]piperidin-1-yl}-6-(4-morpholin-4-yl-phenyl)imidazo[2,1-b][1,3,4]-thiadiazole]	109	116	112	112	92	89	103	100
Cc1c(-c2ccc(N3CCCCCCC3)cc2)nc2sc(N3CCC(C(=O)N4CCN(C)CC4)CC3)nn12 [Compound Z522-0191, 6-(4-azocan-1-ylphenyl)-5-methyl-2-{4-[(4-methylpiperazin-1-yl)carbonyl]-piperidin-1-yl}-imidazo[2,1-b]-[1,3,4]thiadiazole]	39	41	12	10	23	35	103	101
Cc1ccc(C)n1CCN1CCN(C(=O)C2CCN(c3nn4cc(-c5ccc(Cl)cc5)nc4s3)CC2)CC1 [Compound Z522-0209, 6-(4-chlorophenyl)-2-[4-({4-[2-(2,5-dimethyl-1H-pyrrol-1-yl)ethyl]piperazin-1-yl}carbonyl)piperidin-1-yl]imidazo[2,1-b][1,3,4]thiadiazole]	71	59	25	30	52	55	89	96

Reference: US20180186815A1, “PHARMACEUTICAL COMPOSITIONS, METHODS FOR THEIR PREPARATION AND THEIR USE IN THE TREATMENT OF CANCER” (Urifer Ltd., priority 2016, published 2018)
